Values joined by “and” are separate entries in the source; they are usually repeats but may differ in a detail not shown here. Equal entries are not always repeated. Structures can show the parent of a compound that is named as a salt.

This note sets out measurements from patent US20130158072A1, “KAPPA OPIOID RECEPTOR BINDING LIGANDS” (Research Triangle Institute, priority 2010, published 2013).

Data set [1] deals with cloned human κ-opioid receptor (Homo sapiens, UniProt P41145). Briefly: Inhibition of U69,593-stimulated [35S]GTPγS binding. Particulars: for change in potency on N-methylation at the tetrahydroisoquinoline nitrogen: 8c: at all receptor subtypes, others: at κ receptors; for δ/κ / μ/κ: ratio of Ke values; for δ/κ: κ selectivity relative to δ; for μ/κ: κ selectivity relative to μ; for κ, U69,593 Ke: antagonism of U69,593-stimulated [35S]GTPγS binding, CHO cells, means ± SE, at least three experiments.
cloned human κ-opioid receptor, sequence (P41145 whole entry): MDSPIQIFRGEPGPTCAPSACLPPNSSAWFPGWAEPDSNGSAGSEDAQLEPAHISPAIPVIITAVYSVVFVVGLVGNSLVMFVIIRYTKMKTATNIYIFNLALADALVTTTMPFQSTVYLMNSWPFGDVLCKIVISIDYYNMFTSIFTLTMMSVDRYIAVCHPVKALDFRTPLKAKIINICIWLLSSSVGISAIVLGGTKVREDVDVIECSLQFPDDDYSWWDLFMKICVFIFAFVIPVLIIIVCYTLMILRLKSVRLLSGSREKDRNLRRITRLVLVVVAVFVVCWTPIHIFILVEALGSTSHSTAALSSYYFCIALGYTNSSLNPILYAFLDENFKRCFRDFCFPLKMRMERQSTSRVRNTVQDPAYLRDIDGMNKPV
Procedure: (§1) Test compound assay concentrations ranged from 1-5000 nM, depending on their activity. The Ke values were calculated using the formula: Ke=[L]/DR−1, where [L] is the concentration of test compound and DR is the ratio of agonist EC50 value in the presence or absence of test compound, respectively.

The target of data set [2] is T1, cloned human δ-opioid receptor (Homo sapiens, UniProt P41143).
T1 construct: expressed in transfected cells; host or cells: CHO cells
T1 sequence (P41143 whole entry): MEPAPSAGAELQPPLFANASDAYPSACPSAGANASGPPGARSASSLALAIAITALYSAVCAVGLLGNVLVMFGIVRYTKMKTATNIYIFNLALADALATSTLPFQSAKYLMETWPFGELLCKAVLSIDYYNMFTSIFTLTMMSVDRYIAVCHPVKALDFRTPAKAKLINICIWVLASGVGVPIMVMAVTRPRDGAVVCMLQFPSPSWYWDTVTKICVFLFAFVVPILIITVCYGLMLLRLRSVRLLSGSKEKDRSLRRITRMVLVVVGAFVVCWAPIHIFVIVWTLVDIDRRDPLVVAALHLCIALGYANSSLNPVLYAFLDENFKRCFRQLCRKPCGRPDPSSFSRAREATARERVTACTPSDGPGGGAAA
Briefly: Inhibition of DPDPE-stimulated [35S]GTPγS binding. Type of data set: biochemical. The note with it: for δ, DPDPE Ke: antagonism of DPDPE-stimulated [35S]GTPγS binding, CHO cells, means ± SE, at least three experiments.
Procedure: as §1

The target in data set [3] is T2, cloned human μ-opioid receptor (Homo sapiens, UniProt P35372).
T2 construct: expressed in transfected cells; host or cells: CHO cells
T2 sequence (P35372 whole entry): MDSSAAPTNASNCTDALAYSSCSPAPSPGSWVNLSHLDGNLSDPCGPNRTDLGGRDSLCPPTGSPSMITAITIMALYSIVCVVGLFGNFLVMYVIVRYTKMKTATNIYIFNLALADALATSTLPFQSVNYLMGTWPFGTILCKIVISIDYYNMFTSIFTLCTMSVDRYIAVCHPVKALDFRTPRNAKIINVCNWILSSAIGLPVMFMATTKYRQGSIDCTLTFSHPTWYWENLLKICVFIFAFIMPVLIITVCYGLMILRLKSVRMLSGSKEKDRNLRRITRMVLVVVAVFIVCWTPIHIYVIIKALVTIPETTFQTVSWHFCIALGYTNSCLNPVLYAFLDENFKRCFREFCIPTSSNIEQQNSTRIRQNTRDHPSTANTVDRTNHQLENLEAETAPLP
Briefly: Inhibition of DAMGO-stimulated [35S]GTPγS binding. Particulars: for μ, DAMGO Ke: antagonism of DAMGO-stimulated [35S]GTPγS binding, CHO cells, means ± SE, at least three experiments; for potency at μ receptors compared to 3: compared with 3. It is filed as biochemical.
Procedure: as §1

As to `COc1cccc([C@]2(C)CCN(C[C@@H](NC(=O)[C@@]3(C)Cc4ccc(O)cc4CN3)C(C)C)C[C@@H]2C)c1` [Compound 8h, (3R)-7-Hydroxy-N-[(1S)-1-{[(3R,4R)-4-(3-methoxyphenyl)-3,4-dimethylpiperidin-1-yl]methyl}-2-methylpropyl]-3-methyl-1,2,3,4-tetrahydroisoquinoline-3-carboxamide], the Kb in data set [1] is 0.26 ± 0.1 nM; in data set [2] it was 2200 ± 900 nM.
For `COc1cccc([C@]2(C)CCN(C[C@@H](NC(=O)[C@H]3Cc4ccc(O)cc4CN3C)C(C)C)C[C@@H]2C)c1` [Compound 8k, (3R)-7-Hydroxy-N-[(1S)-1-{[(3R,4R)-4-(3-methoxyphenyl)-3,4-dimethylpiperidin-1-yl]methyl}-2-methylpropyl]-2-methyl-1,2,3,4-tetrahydroisoquinoline-3-carboxamide], the Kb in data set [1] amounted to 4.3 ± 2.7 nM; in data set [2], 2300 ± 900 nM; in data set [3] it was 880 ± 220 nM. In addition, in data set [1], the “change in potency on N-methylation at the tetrahydroisoquinoline nitrogen” value (shortened to “change in potency on N-methylation”) is recorded as “decreases in potency”.
`COc1cccc([C@]2(C)CCN(C[C@@H](NC(=O)[C@@]3(C)Cc4ccc(OC)cc4CN3)C(C)C)C[C@@H]2C)c1` [Compound 8l, (3R)-7-Methoxy-N-[(1S)-1-{[(3R,4R)-4-(3-methoxyphenyl)-3,4-dimethylpiperidin-1-yl]methyl}-2-methylpropyl]-3-methyl-1,2,3,4-tetrahydroisoquinoline-3-carboxamide]: the Kb in data set [1] is 15.2 ± 3.7 nM; in data set [2], above 10000 nM.
Consider “(3R)-7-Methoxy-N-[(1S,2S)-1-{[(3R,4R)-4-(3-hydroxyphenyl)-3,4-dimethylpiperidin-1-yl]}-2-methylbutanyl]-3-methyl-1,2,3,4-tetrahydroisoquinoline-3-carboxamide [Compound 8m]”, for which, in data set [1], the δ/κ was 5 and the μ/κ is given as 5. Besides, in data set [2], the “δ, DPDPE Ke” value turned out to be 18.7 ± 1.5 nM. Also, in data set [3], the “μ, DAMGO Ke” value amounted to 17.5 ± 3.6 nM and the “potency at μ receptors compared to 3” value was “increased potency”.
Take `CC[C@H](C)[C@@H](CN1CC[C@@](C)(c2cccc(OC)c2)[C@@H](C)C1)NC(=O)[C@H]1Cc2ccc(O)cc2CN1C` (as salt: hydrochloride) [Compound 8p, (3R)-7-Hydroxy-N-[(1S,2S)-1-{[(3R,4R)-4-(3-methoxyphenyl)-3,4-dimethylpiperidin-1-yl]methyl}-2-methylbutanyl]-2-methyl-1,2,3,4-tetrahydroisoquinoline-3-carboxamide]: the melting point was 180 °C (dec.).
Take `CC[C@H](C)[C@@H](CN1CC[C@@](C)(c2cccc(OC)c2)[C@@H](C)C1)NC(=O)[C@H]1Cc2ccc(O)cc2CN1C` [Compound 8p, (3R)-7-Hydroxy-N-[(1S,2S)-1-{[(3R,4R)-4-(3-methoxyphenyl)-3,4-dimethylpiperidin-1-yl]methyl}-2-methylbutanyl]-2-methyl-1,2,3,4-tetrahydroisoquinoline-3-carboxamide]: in data set [1], the Kb was 2.03 ± 0.03 nM, the “change in potency on N-methylation” value is given as “decreases in potency” and the μ/κ came to 180. The compound also showed a Kb in data set [2] above 10000 nM. The compound further returned a Kb in data set [3] of 360 ± 120 nM.
Regarding `COc1cccc([C@]2(C)CCN(C[C@@H](NC(=O)[C@@]3(C)Cc4ccc(OC)cc4CN3)C(C)C)C[C@@H]2C)c1` (as salt: hydrochloride) [Compound 8l, (3R)-7-Methoxy-N-[(1S)-1-{[(3R,4R)-4-(3-methoxyphenyl)-3,4-dimethylpiperidin-1-yl]methyl}-2-methylpropyl]-3-methyl-1,2,3,4-tetrahydroisoquinoline-3-carboxamide], the melting point is > 220 °C (dec.).
Same read-out and setting: then `CC[C@H](C)[C@@H](CN1CC[C@@](C)(c2cccc(O)c2)[C@@H](C)C1)NC(=O)[C@@]1(C)Cc2ccc(O)cc2CN1` (as salt: hydrochloride) [Compound 8i, (3R)-7-Hydroxy-N-[(1S,2S)-1-{[(3R,4R)-4-(3-hydroxyphenyl)-3,4-dimethylpiperidin-1-yl]methyl}-2-methylbutanyl]-3-methyl-1,2,3,4-tetrahydroisoquinoline-3-carboxamide], with > 220 °C (dec.).
Consider `CC(C)[C@@H](CN1CC[C@@](C)(c2cccc(O)c2)[C@@H](C)C1)NC(=O)[C@H]1Cc2ccc(O)cc2CN1C` [Compound 8c], for which, in data set [1], the “change in potency on N-methylation” value is given as “reduction in potency at all receptor subtypes”; the “κ, U69,593 Ke” value was 0.16 nM and 0.16 ± 0.06 nM; the δ/κ is reported as 3070; the μ/κ was determined as 1313. Besides, in data set [2], the “δ, DPDPE Ke” value was found to be 491 ± 120 nM. Moreover, the “μ, DAMGO Ke” value in data set [3] is on record as 210 ± 60 nM.
Regarding `CC[C@H](C)[C@@H](CN1CC[C@@](C)(c2cccc(O)c2)[C@@H](C)C1)NC(=O)[C@H]1Cc2ccc(O)cc2CN1C` [Compound 8j, (3R)-7-Hydroxy-N-[(1S,2S)-1-{[(3R,4R)-4-(3-hydroxyphenyl)-3,4-dimethylpiperidin-1-yl]methyl}-2-methylbutanyl]-2-methyl-1,2,3,4-tetrahydroisoquinoline-3-carboxamide], in data set [1], the Kb was found to be 0.11 ± 0.03 nM, the “change in potency on N-methylation” value is given as “decreases in potency”, the δ/κ is given as 1200 and the μ/κ came to 66. The Kb in data set [2] stood at 132 ± 24 nM. In data set [3], the Kb was 7.2 ± 1.8 nM and the “potency at μ receptors compared to 3” value is given as “increased potency”.
For `CC[C@H](C)[C@@H](CN1CC[C@@](C)(c2cccc(OC)c2)[C@@H](C)C1)NC(=O)[C@@]1(C)Cc2ccc(O)cc2CN1` [Compound 8n, (3R)-7-Hydroxy-N-[(1S,2S)-1-{[(3R,4R)-4-(3-methoxyphenyl)-3,4-dimethylpiperidin-1-yl]methyl}-2-methylbutanyl)-3-methyl-1,2,3,4-tetrahydroisoquinoline-3-carboxamide], the Kb in data set [1] is 0.52 ± 0.2 nM; in data set [2], 2100 ± 600 nM.
Turning to `COc1ccc2c(c1)CN(C)[C@@](C)(C(=O)N[C@H](CN1CC[C@@](C)(c3cccc(O)c3)[C@@H](C)C1)C(C)C)C2` [Compound 8o, (3R)-7-Methoxy-N-[(1S)-1-{[(3R,4R)-4-(3-hydroxyphenyl)-3,4-dimethylpiperidin-1-yl]methyl}-2-methylpropyl]-2,3-dimethyl-1,2,3,4-tetrahydroisoquinoline-3-carboxamide], in data set [1], the Kb worked out at 2.2 ± 0.6 nM and the “change in potency on N-methylation” value is on record as “decreases in potency”. This compound also displayed a Kb in data set [3] of 7 ± 1.4 nM.
With `COc1cccc([C@]2(C)CCN(C[C@@H](NC(=O)[C@H]3Cc4ccc(O)cc4CN3)C(C)C)C[C@@H]2C)c1` [Compound 8d, (3R)-7-Hydroxy-N-[(1S)-1-{[(3R,4R)-4-(3-methoxyphenyl)-3,4-dimethylpiperidin-1-yl]methyl}-2-methylpropyl]-1,2,3,4-tetrahydroisoquinoline-3-carboxamide], in data set [1], the Kb was found to be 0.037 ± 0.003 nM, the δ/κ is 573 and the μ/κ is 649. Besides, the “decrease in potency at the κ receptor relative to 3” value in data set [1] (compared with 3) is given as “two-fold decrease in potency”. The Kb in data set [2] turned out to be 21.2 ± 5 nM. In data set [3], this compound showed a Kb of 24 ± 8 nM.
As for `COc1ccc2c(c1)CN[C@@](C)(C(=O)N[C@H](CN1CC[C@@](C)(c3cccc(O)c3)[C@@H](C)C1)C(C)C)C2` [Compound 8g, (3R)-7-Methoxy-N-[(1S)-1-[(3R,4R)-4-(3-hydroxyphenyl)-3,4-dimethylpiperidin-1-yl]methyl}-(2-methylpropyl]-3-methyl-1,2,3,4-tetrahydroisoquinoline-3-carboxamide], in data set [1], the “κ, U69,593 Ke” value worked out at 0.93 ± 0.05 nM; the δ/κ is given as 40; the μ/κ was determined as 4. The “δ, DPDPE Ke” value in data set [2] was determined as 36.8 ± 6.9 nM. Also, the “μ, DAMGO Ke” value in data set [3] amounted to 3.8 ± 1.1 nM.
For `CC[C@H](C)[C@@H](CN1CC[C@@](C)(c2cccc(O)c2)[C@@H](C)C1)NC(=O)[C@@]1(C)Cc2ccc(O)cc2CN1` [Compound 8i, (3R)-7-Hydroxy-N-[(1S,2S)-1-{[(3R,4R)-4-(3-hydroxyphenyl)-3,4-dimethylpiperidin-1-yl]methyl}-2-methylbutanyl]-3-methyl-1,2,3,4-tetrahydroisoquinoline-3-carboxamide], the values for the Kb in data set [1] and in data set [3] were 0.11 ± 0.01 nM and 8.7 ± 2.7 nM, respectively. Besides, the “potency at μ receptors compared to 3” value in data set [3] is listed as “increased potency”.
The matching figures for `CC[C@H](C)[C@@H](CN1CC[C@@](C)(c2cccc(OC)c2)[C@@H](C)C1)NC(=O)[C@H]1Cc2ccc(O)cc2CN1` [Compound 8f, (3R)-7-Hydroxy-N-[(1S,2S)-1-{[(3R,4R)-4-(3-methoxyphenyl)-3,4-dimethylpiperidin-1-yl]methyl}-2-methylbutanyl]-1,2,3,4-tetrahydroisoquinoline-3-carboxamide]: 0.96 ± 0.4 nM, 5.1 ± 2 nM and “increased potency”.
On to `CC(C)[C@@H](CN1CC[C@@](C)(c2cccc(O)c2)[C@@H](C)C1)NC(=O)[C@@]1(C)Cc2ccc(O)cc2CN1` [Compound 8e, (3R)-7-Hydroxy-N-[(1S)-1-[(3R,4R)-4-(3-hydroxyphenyl)-3,4-dimethylpiperidin-1-yl]methyl}-(2-methylpropyl]-3-methyl-1,2,3,4-tetrahydroisoquinoline-3-carboxamide], for which the “κ, U69,593 Ke” value in data set [1] was 0.03 nM and 0.03 ± 0.008 nM. Also, in data set [2], the “δ, DPDPE Ke” value amounted to 854 ± 210 nM. For the same compound, the “μ, DAMGO Ke” value in data set [3] is reported as 3.6 ± 1 nM.
